The values that follow come from ChEMBL document CHEMBL4152237, “Identification of novel β-lactams and pyrrolidinone derivatives as selective Histamine-3 receptor (H3R) modulators as possible anti-obesity agents” (Eur J Med Chem, 2018).

The source made the active and inactive calls. Unless noted, the calls are words filed in the database; no cut-off is given here.

Data set [1] has as its target Histamine H2 receptor (Homo sapiens) (UniProt P25021). In words: Agonist activity at H2R (unknown origin) expressed in HEK293 cells harboring glosensor-22F cAMP plasmid DNA assessed as inhibition of forskolin-stimulated cAMP accumulation at 10 uM preincubated with cells followed by forskolin addition measured after 10 mins by luminescence assay. It counts as functional, cell-based. On the technique in general: cAMP levels reflect the balance of adenylyl cyclase and phosphodiesterase activity.

For data set [2], the target named is T1, 5-hydroxytryptamine receptor 2C (Homo sapiens) (UniProt P28335).
T1 sequence (whole entry): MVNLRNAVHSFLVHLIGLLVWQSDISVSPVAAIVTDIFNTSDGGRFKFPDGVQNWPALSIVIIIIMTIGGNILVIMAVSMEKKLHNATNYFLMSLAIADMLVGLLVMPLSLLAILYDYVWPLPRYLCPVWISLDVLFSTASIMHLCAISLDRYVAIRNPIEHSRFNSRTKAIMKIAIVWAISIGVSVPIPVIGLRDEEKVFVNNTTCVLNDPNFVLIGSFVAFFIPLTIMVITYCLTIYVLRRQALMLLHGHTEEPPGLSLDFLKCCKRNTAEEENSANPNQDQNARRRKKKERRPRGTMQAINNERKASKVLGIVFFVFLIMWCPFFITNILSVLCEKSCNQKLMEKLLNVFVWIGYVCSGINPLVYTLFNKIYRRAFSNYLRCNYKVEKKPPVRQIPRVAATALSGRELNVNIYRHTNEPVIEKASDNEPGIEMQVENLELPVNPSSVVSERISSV
Briefly: Antagonist activity at human 5-HT2C expressed in HEK293 cells harboring luc2P/NFAT-RE plasmid at 10 uM after 6 to 8 hrs by luciferase reporter gene assay. It counts as functional, cell-based. A general note: A reporter such as luciferase makes a cellular process visible.

The target in data set [3] is Histamine H1 receptor (Homo sapiens) (UniProt P35367). In words: Agonist activity at H1R (unknown origin) expressed in HEK293 cells harboring luc2P/NFAT-RE plasmid at 10 uM after 6 to 8 hrs by luciferase reporter gene assay. Format: functional, cell-based.
Chain of Histamine H1 receptor (Homo sapiens) (P35367 whole entry): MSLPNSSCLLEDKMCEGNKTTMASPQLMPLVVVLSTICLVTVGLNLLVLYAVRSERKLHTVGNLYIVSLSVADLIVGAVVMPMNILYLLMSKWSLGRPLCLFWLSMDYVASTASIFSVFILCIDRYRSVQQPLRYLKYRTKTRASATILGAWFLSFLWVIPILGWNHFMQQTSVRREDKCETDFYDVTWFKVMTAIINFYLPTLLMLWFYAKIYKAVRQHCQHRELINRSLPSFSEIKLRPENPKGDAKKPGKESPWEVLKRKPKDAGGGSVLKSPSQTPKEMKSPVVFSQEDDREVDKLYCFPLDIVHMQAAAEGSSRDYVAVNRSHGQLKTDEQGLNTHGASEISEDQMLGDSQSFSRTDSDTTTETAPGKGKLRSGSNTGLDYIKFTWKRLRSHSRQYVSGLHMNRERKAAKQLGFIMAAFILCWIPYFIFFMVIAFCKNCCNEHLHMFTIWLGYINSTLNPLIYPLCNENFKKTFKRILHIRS
In data set [4] the target is T2, Histamine H3 receptor (Homo sapiens, UniProt Q9Y5N1). Briefly: Agonist activity at human H3R expressed in HEK293 cells harboring glosensor-22F cAMP plasmid DNA assessed as inhibition of forskolin-stimulated cAMP accumulation at 1 uM preincubated with cells followed by forskolin addition measured after 10 mins in presence of H3R antagonist GSK334429 by luminescence assay. It counts as functional, cell-based.
T2 sequence (Q9Y5N1 whole entry): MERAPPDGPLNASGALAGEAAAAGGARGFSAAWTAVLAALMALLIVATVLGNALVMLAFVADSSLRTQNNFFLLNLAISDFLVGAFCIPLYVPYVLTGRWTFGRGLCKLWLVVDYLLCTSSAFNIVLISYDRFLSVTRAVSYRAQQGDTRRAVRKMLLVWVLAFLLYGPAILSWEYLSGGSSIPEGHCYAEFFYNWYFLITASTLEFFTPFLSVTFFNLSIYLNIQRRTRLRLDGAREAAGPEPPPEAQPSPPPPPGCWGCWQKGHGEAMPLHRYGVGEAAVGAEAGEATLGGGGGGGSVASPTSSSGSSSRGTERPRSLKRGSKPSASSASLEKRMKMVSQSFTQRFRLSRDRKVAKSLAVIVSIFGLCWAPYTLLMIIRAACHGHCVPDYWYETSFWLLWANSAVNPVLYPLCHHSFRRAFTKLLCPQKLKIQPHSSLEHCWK

Data set [5] has as its target Histamine H4 receptor (Homo sapiens) (UniProt Q9H3N8). Briefly: Agonist activity at H4R (unknown origin) expressed in HEK293 cells harboring glosensor-22F cAMP plasmid DNA assessed as inhibition of forskolin-stimulated cAMP accumulation at 10 uM preincubated with cells followed by forskolin addition measured after 10 mins by luminescence assay. It counts as functional, cell-based.

The target in data set [6] is T2, Histamine H3 receptor. In words: Agonist activity at human H3R expressed in HEK293 cells harboring glosensor-22F cAMP plasmid DNA assessed as inhibition of forskolin-stimulated cAMP accumulation preincubated with cells followed by forskolin addition measured after 10 mins by luminescence assay. It counts as functional, cell-based. The conditions noted are these: read-out: EC50.

Data set [7] can be described thus: Octanol/water partition co-efficient, log P of the compound after 24 hrs by HPLC based shake-flask method. It counts as physicochemical.
Data set [8] deals with Histamine H4 receptor (Homo sapiens) (UniProt Q9H3N8). In words: Antagonist activity at H4R (unknown origin) expressed in HEK293 cells harboring glosensor-22F cAMP plasmid DNA assessed as effect on forskolin-stimulated cAMP accumulation at 10 uM preincubated with cells followed by forskolin addition measured after 10 mins by luminescence assay. It counts as functional, cell-based.
Chain of Histamine H4 receptor (Homo sapiens) (Q9H3N8 whole entry): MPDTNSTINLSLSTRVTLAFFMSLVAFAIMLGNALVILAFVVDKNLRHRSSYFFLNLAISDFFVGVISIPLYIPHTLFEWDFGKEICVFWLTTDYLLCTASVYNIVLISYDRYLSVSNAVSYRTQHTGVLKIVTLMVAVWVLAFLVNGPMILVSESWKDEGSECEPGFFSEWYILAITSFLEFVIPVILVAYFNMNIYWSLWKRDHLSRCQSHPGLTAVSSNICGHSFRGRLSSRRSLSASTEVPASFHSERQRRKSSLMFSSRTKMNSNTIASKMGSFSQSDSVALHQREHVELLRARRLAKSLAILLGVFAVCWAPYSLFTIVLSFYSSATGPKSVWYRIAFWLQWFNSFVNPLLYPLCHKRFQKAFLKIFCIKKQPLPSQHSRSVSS

The target of data set [9] is T1, 5-hydroxytryptamine receptor 2C (Homo sapiens). Briefly: Agonist activity at human 5-HT2C expressed in HEK293 cells harboring luc2P/NFAT-RE plasmid at 10 uM after 6 to 8 hrs by luciferase reporter gene assay. Format: functional, cell-based.
Data set [10] addresses Histamine H1 receptor (Homo sapiens) (UniProt P35367). Briefly: Antagonist activity at H1R (unknown origin) expressed in HEK293 cells harboring luc2P/NFAT-RE plasmid at 10 uM after 6 to 8 hrs by luciferase reporter gene assay. Format: functional, cell-based.
The target in data set [11] is Luciferin 4-monooxygenase (Photinus pyralis) (UniProt P08659). In words: Inhibition of firefly luciferase activity expressed in HEK293 cells assessed as reduction in forskolin-stimulated cAMP accumulation up to 10 uM preincubated with cells followed by forskolin addition measured after 10 mins by luminescence assay. Format: cell-based.
Chain of Luciferin 4-monooxygenase (Photinus pyralis) (P08659 whole entry): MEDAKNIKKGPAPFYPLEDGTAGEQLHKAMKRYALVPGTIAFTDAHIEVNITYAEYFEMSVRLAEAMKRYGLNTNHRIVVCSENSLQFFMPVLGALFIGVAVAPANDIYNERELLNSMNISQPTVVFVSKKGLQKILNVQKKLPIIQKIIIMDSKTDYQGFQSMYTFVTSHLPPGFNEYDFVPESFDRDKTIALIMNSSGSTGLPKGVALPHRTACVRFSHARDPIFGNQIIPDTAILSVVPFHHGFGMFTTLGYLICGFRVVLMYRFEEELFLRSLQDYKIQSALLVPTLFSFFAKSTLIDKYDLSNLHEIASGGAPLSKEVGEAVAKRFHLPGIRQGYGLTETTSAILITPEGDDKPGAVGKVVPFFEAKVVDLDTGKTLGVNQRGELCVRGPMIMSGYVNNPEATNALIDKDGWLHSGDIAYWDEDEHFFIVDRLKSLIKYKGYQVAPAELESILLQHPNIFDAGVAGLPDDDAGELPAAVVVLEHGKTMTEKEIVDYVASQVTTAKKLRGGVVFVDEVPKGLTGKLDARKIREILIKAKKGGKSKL
The target of data set [12] is Histamine H2 receptor (Homo sapiens) (UniProt P25021). Briefly: Antagonist activity at H2R (unknown origin) expressed in HEK293 cells harboring glosensor-22F cAMP plasmid DNA assessed as effect on forskolin-stimulated cAMP accumulation at 10 uM preincubated with cells followed by forskolin addition measured after 10 mins by luminescence assay. It counts as functional, cell-based.
Chain of Histamine H2 receptor (Homo sapiens) (P25021 whole entry): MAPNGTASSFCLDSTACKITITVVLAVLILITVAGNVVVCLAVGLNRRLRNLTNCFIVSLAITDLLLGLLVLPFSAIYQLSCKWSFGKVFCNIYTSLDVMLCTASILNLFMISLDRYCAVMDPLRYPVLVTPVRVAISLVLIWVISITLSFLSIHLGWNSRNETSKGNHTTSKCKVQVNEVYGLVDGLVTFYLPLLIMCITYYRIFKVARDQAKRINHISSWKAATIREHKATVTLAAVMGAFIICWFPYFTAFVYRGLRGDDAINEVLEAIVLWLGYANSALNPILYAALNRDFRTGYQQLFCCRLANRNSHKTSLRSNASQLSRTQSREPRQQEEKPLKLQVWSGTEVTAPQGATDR

In a further data set the test system is HEK-293T. In words: Cytotoxicity against HEK293T cells assessed as reduction in cell viability at 1 to 10 uM after 24 hrs by XTT assay. As to conditions: human. It counts as cell-based. (Tetrazolium dyes change colour on reduction, which living cells bring about.)

For orientation: EC50 means the concentration that produces a half-maximal response. For orientation: logP means a log measure of how a compound divides between an organic and an aqueous phase. Turning to `O=C1C=C[C@]23C(c4ccccc4)=CC(=O)N2[C@H](c2ccc([N+](=O)[O-])cc2)C(=O)N[C@@H]3C1`, the inhibition result (in data set [1]; in data set [2]; at Histamine H3 receptor [4]; in data set [5]; in data set [8]; in data set [10]) was “inactive” throughout. Also, the inhibition result in data set [11] and in data set [12] was “inactive” throughout. Moreover, the result in data set [3] and in data set [9] was inactive. In addition, the EC50 at Histamine H3 receptor [6] is 0.3 nM. In data set [7], the logP at 24 h stood at 1.78. Besides, in the data set with HEK-293T, the Activity result was “Non-Toxic”.

Turning to `O=C1C=C[C@]23C(c4ccccc4)=CC(=O)N2[C@H](c2ccc(C(F)(F)F)cc2)C(=O)N[C@@H]3C1`, the inhibition entry (in data set [1]; in data set [2]; on Histamine H3 receptor [4]; in data set [5]; in data set [8]; in data set [10]) was “inactive” in each case. In addition, the inhibition result in data set [11] and in data set [12] was “inactive” throughout. Further, the result in [3] and in [9] was inactive. The EC50 at Histamine H3 receptor [6] amounted to 94 nM. This molecule also returned a logP at 24 h in [7] of 2.1. Moreover, the Activity entry in the data set with HEK-293T is given as “Non-Toxic”.

For the molecule `COc1ccc(NC2(c3ccc(Br)cc3)C(=O)N(C(C)(C)C)C(=O)/C2=C/c2ccccc2)cc1OC` (centres undefined), the inhibition entry (in data set [1]; in data set [2]; at Histamine H3 receptor [4]; in data set [5]; in data set [8]; in data set [10]) was “inactive” throughout. The inhibition entry in data set [11] and in data set [12] was “inactive” in each case. For the same molecule, the outcome in [3] and in data set [9] was inactive. The EC50 at Histamine H3 receptor [6] is 1.3 nM. For the same molecule, the Activity result in the data set with HEK-293T was “Non-Toxic”.

Turning to `COc1cc(N2C(=O)C(=Cc3ccccc3)C2(C(=O)NC(C)(C)C)c2ccc(Cl)c(F)c2)cc(OC)c1OC` (centres undefined), the inhibition entry (in [1]; in [2]; on Histamine H3 receptor [4]; in data set [5]; in data set [8]; in data set [10]) was “inactive” in each case. Moreover, the inhibition result in data set [11] and in [12] was “inactive” throughout. Besides, the result in data set [3] and in [9] was inactive. In addition, the 50% effective concentration (EC50) at Histamine H3 receptor [6] was determined as 1.1 nM. Also, in the data set on HEK-293T, the Activity entry was “Non-Toxic”.

In the case of `COc1cc(N2C(=O)C(=Cc3ccccc3)C2(C(=O)NC(C)(C)C)c2ccccc2)cc(OC)c1OC` (centres undefined), the inhibition entry (in data set [1]; in [2]; at Histamine H3 receptor [4]; in data set [5]; in data set [8]; in data set [10]) was “inactive” throughout. In addition, the inhibition entry in data set [11] and in data set [12] was “inactive” throughout. Also, the outcome in data set [3] and in [9] was inactive. For the same molecule, the EC50 on Histamine H3 receptor [6] is 0.1 nM. Also, the Activity result in the data set on HEK-293T was “Non-Toxic”.

`COc1cc(NC2(c3ccc(Br)cc3)C(=O)N(C(C)(C)C)C(=O)/C2=C/c2ccccc2)cc(OC)c1OC` (centres undefined): the inhibition result (in [1]; in data set [2]; at Histamine H3 receptor [4]; in data set [5]; in data set [8]; in data set [10]) was “inactive” in each case. The inhibition entry in data set [11] and in data set [12] was “inactive” each time. Besides, the outcome in data set [3] and in data set [9] was inactive. Further, at Histamine H3 receptor [6], the EC50 worked out at 5.7 nM. In the data set with HEK-293T, the Activity result was “Non-Toxic”.
